In brackets after ≈: the same amount, converted by molar mass.

For series [1], the system named is Staph. aureus ICB 25701. The series is described as follows: Minimum inhibitory concentration (MIC), serial dilution on Iso-Sensitest Agar. Type of series: cell-based. The settings on record: Staphylococcus aureus, ICB25701, 37° C., about 20 hours. As for the experimental part:
(§1) In the following Tables 9 and 10, the minimum inhibitory concentration are shown as a measure of the antibacterial activity and the ID50 values as a measure of the interactions with mammalian DNA of a substance both for compounds according to the invention and for reference compounds from the prior art (EP 520 240).
(§2) The minimum inhibitory concentration (MIC) were determined by a serial dilution method on Iso-Sensitest Agar (Oxoid). For each test substance, a number of agar plates were prepared which, with doubled dilution in each case, contained decreasing concentrations of the active compound. The agar plates were inoculated using a multipoint inoculator (Denley). For inoculation, overnight cultures of the pathogens were used which had previously been diluted such that each inoculation point contained about […] colony-forming particles. The inoculated agar plates were incubated at 37° C. and the microorganism growth was read off after about 20 hours. The MIC value (μg/ml) indicates the lowest active compound concentration at which no growth could be detected using the naked eye.

Series [2] concerns E. coli Neumann. The description is as above. It is filed as cell-based. The following applies: Escherichia coli, 37° C., about 20 hours. As for the experimental part: as §1, §2
Series [3] is described as follows: Inhibition of DNA synthesis in CHO-KI cells (interaction with mammalian DNA), fluorophotometric. It is filed as cell-based, Chinese hamster. The settings on record: hamster, cho-k1 cells; concentration at which DNA synthesis in CHO-KI cells is inhibited by 50%; read-out: ID50 (the source's name).
Excerpt: as §1
ID50 is understood as meaning the concentration of a substance at which the DNA synthesis in cells from ovaries of the Chinese hamster (CHO-KI) is inhibited by 50%. This value is determined over defined time intervals in decreasing dilution steps after incubation of the appropriate substances. To do this, the DNA synthesis in CHO-KI cells is determined in comparison to controls by means of fluorophotometric methods.

The subject of series [4] is Ps. aeruginosa Walter. The series is described as follows: Minimum inhibitory concentration (MIC), serial dilution on Iso-Sensitest Agar. Type of series: cell-based. The following applies: Pseudomonas aeruginosa, 37° C., about 20 hours. As for the experimental part:
as §2

Series [5] relates to Staph. aureus 133. Described as above. The following applies: Staphylococcus aureus, 37° C., about 20 hours. It is filed as cell-based. As for the experimental part: as §2
In series [6] the test system is Bac. fragilis ES 25. The description is as above. Type of series: cell-based. The following applies: Bacteroides fragilis, ES25, 37° C., about 20 hours. As for the experimental part:
as §2

In the case of `NC12C=CC=CC1CN(c1nc3c(cc1F)c(=O)c(C(=O)O)cn3C1CC1)C2` (stereo not drawn) [Example 9, 7-(3a-amino-1,2,3,7a-tetrahydro-isoindol-2-yl)-1-cyclopropyl-6-fluoro-1,4-dihydro-4-oxo-1,8-naphthyridine-3-carboxylic acid], the MIC in series [1] is 8 µg/mL (≈ 20.9 µM); in series [2] it was no more than 0.015 µg/mL; in series [4], 1 µg/mL (≈ 2.62 µM); in series [5], 0.06 µg/mL (≈ 0.157 µM); in series [6], 4 µg/mL (≈ 10.5 µM). The IC50 in series [3] turned out to be 32 µg/mL (≈ 83.7 µM).

For the compound `CC1C=CC(N)C2CN(c3c(F)cc4c(=O)c(C(=O)O)cn(C5CC5)c4c3Cl)CC12` (stereo not drawn) [Ref. 3, 7(4-Amino-7-methyl-1,3,3a,4,7,7a-hexahydro-isoindol-2-yl)-8-chloro-1-cycl propyl-6-fluoro-1,4-dihydro-4-oxo-3-quinolinecarboxylic acid, reference compound], the MIC in series [1] stood at 0.015 µg/mL (≈ 0.0347 µM); in series [2], 0.015 µg/mL (≈ 0.0347 µM); in series [4] it was 0.5 µg/mL (≈ 1.16 µM); in series [5], 0.015 µg/mL (≈ 0.0347 µM); in series [6] it was 0.125 µg/mL (≈ 0.289 µM). In addition, the IC50 in series [3] turned out to be 0.1 µg/mL (≈ 0.232 µM).

On to `NC12C=CC=CC1CN(c1c(F)cc3c(=O)c(C(=O)O)cn([C@@H]4C[C@@H]4F)c3c1F)C2` (stereo partly drawn) [Example 8, 7-(3a-amino-1,2,3,7a-tetrahydro-isoindol-2-yl)-6,8-difluoro-1-(cis-2-fluorocydopropyl)-1,4-dihydro-4-oxo-3-quinolineearboxylic acid], for which the MIC in series [1] is 0.5 µg/mL (≈ 1.2 µM); in series [2] it was no more than 0.015 µg/mL; in series [4], 0.5 µg/mL (≈ 1.2 µM); in series [5], 0.03 µg/mL (≈ 0.0719 µM); in series [6], 0.5 µg/mL (≈ 1.2 µM). Further, in series [3], the IC50 stood at 16 µg/mL (≈ 38.3 µM).

As to `NC12C=CC=CC1CN(c1c(F)cc3c(=O)c(C(=O)O)cn(C4CC4)c3c1Cl)C2` (stereo not drawn) [Example 3, 7-(3a-amino-1,2,3,7a-tetrahydro-isoindol-2-yl)-8-chloro-1-cyclopropyl-6-fluoro-1,4-dihydro-4-oxo-3-quinolineearboxylic acid], the MIC in series [1] was 0.25 µg/mL (≈ 0.601 µM); in series [2] it was no more than 0.015 µg/mL; in series [4] it was 0.5 µg/mL (≈ 1.2 µM); in series [5] it was no more than 0.015 µg/mL; in series [6], 0.125 µg/mL (≈ 0.301 µM). Further, the IC50 in series [3] turned out to be 32 µg/mL (≈ 77 µM).

In the case of `COc1c(N2CC3C(C)C=CC(N)C3C2)c(F)cc2c(=O)c(C(=O)O)cn(C3CC3)c12` (stereo not drawn) [Ref. 2, 7(4-Amino-7-methyl-1,3,3a,4,7,7a-hexahydro-isoindol-2-yl)-1-cyclopropyl-6 fluoro-1,4-dihydro-8-methoxy-4-oxo-3-quinolinecarboxylic acid, reference compound], the MIC in series [1] came out at 0.015 µg/mL (≈ 0.0351 µM); in series [2], 0.015 µg/mL (≈ 0.0351 µM); in series [4] it was 1 µg/mL (≈ 2.34 µM); in series [5], 0.015 µg/mL (≈ 0.0351 µM); in series [6], 0.25 µg/mL (≈ 0.585 µM). Besides, in series [3], the IC50 was 0.1 µg/mL (≈ 0.234 µM).

In the case of `NC12C=CC=CC1CN(c1c(F)cc3c(=O)c(C(=O)O)cn(C4CC4)c3c1F)C2` (stereo not drawn) [Example 2, 7-(3a-amino-1,2,3,7a-tetrahydroisoindol-2-yl)-1-cyclopropyl-6,8-difluoro-1,4-dihydro-4-oxo-3-quinolinecarboxylic acid], the MIC is 2 µg/mL (≈ 5.01 µM) in series [1]; no more than 0.015 µg/mL in series [2]; 1 µg/mL (≈ 2.5 µM) in series [4]; 0.06 µg/mL (≈ 0.15 µM) in series [5]; 1 µg/mL (≈ 2.5 µM) in series [6]. Moreover, in series [3], the IC50 came out at 32 µg/mL (≈ 80.1 µM).

For the compound `CC1C=CC(N)C2CN(c3c(F)cc4c(=O)c(C(=O)O)cn(C5CC5)c4c3F)CC12` (stereo not drawn) [Ref. 1, 7(4-Amino-7-methyl-1,3,3a,4,7,7a-hexahydro-isoindol-2-yl)-1-cyclopropyl-6 8-difluoro-1,4-dihydro-4-oxo-3-quinolinecarboxylic acid, reference compound], the MIC was found to be 0.06 µg/mL (≈ 0.144 µM) in series [1]; 0.015 µg/mL (≈ 0.0361 µM) in series [2]; 0.5 µg/mL (≈ 1.2 µM) in series [4]; 0.015 µg/mL (≈ 0.0361 µM) in series [5]; 0.5 µg/mL (≈ 1.2 µM) in series [6]. Also, the IC50 in series [3] was found to be 0.015 µg/mL (≈ 0.0361 µM).

Take `COc1c(N2CC3C=CC=CC3(N)C2)c(F)cc2c(=O)c(C(=O)O)cn(C3CC3)c12` (stereo not drawn) [Example 4, 7-(3a-amino-1,2,3,7a-tetrahydro-isoindolo2-yl)-1-cyclopropyl-6-fluoro-1,4-dihydro-8-methoxy-4-oxo-3-quinolinecarboxylic acid]: the MIC in series [1] is 0.5 µg/mL (≈ 1.22 µM); in series [2], no more than 0.015 µg/mL; in series [4] it was 0.5 µg/mL (≈ 1.22 µM); in series [5], no more than 0.015 µg/mL; in series [6], 2 µg/mL (≈ 4.86 µM). In series [3], the IC50 was greater than 64 µg/mL.

As usually defined, the MIC is the lowest concentration that inhibits growth of the organism. A higher MIC goes with weaker potency.

The values are drawn from patent US5679689A, “Quinolone- and naphthyridonecarboxylic acid derivatives” (Bayer Aktiengesellschaft, priority 1994, dated 1997).
